From the NIST ThermoML archive (doi:10.1021/je049743g)
Where “and” joins values, the source holds several entries; their conditions need not be identical. Identical values can stand only once. ± gives the expanded uncertainty stated by the source.

Experiment: wn = mass fraction of the nth substance listed
Conditions: Capillary rise

FC(C(F)(F)F)C(F)(F)F [1,1,1,2,3,3,3-heptafluoropropane] + FCF
Conditions | surface tension liquid-gas
252.66 K, w2 = 0.3988 | 12.74 ± 0.31 mN/m and 12.77 ± 0.31 mN/m
252.82 K, w2 = 0.3003 | 12.41 ± 0.3 mN/m
254.68 K, w2 = 0.3983 | 12.35 ± 0.31 mN/m and 12.37 ± 0.31 mN/m
254.83 K, w2 = 0.544 | 12.71 ± 0.31 mN/m
255.1 K, w2 = 0.2998 | 12.14 ± 0.31 mN/m and 12.13 ± 0.31 mN/m
256.92 K, w2 = 0.354 | 11.85 ± 0.31 mN/m
257.09 K, w2 = 0.5434 | 12.37 ± 0.31 mN/m and 12.38 ± 0.31 mN/m
257.1 K, w2 = 0.2993 | 11.77 ± 0.31 mN/m and 11.79 ± 0.31 mN/m
257.1 K, w2 = 0.3977 | 12.02 ± 0.31 mN/m and 12.03 ± 0.31 mN/m
258.83 K, w2 = 0.5429 | 11.97 ± 0.31 mN/m
258.84 K, w2 = 0.7282 | 12.63 ± 0.31 mN/m and 12.65 ± 0.31 mN/m
258.88 K, w2 = 0.3972 | 11.74 ± 0.3 mN/m
259 K, w2 = 0.2988 | 11.52 ± 0.3 mN/m and 11.51 ± 0.3 mN/m
260.89 K, w2 = 0.3528 | 11.26 ± 0.3 mN/m and 11.25 ± 0.3 mN/m
260.99 K, w2 = 0.5423 | 11.65 ± 0.3 mN/m
261.01 K, w2 = 0.2982 | 11.3 ± 0.31 mN/m
261.05 K, w2 = 0.3966 | 11.49 ± 0.31 mN/m and 11.48 ± 0.31 mN/m
262.75 K, w2 = 0.2977 | 11 ± 0.31 mN/m and 10.97 ± 0.31 mN/m
262.79 K, w2 = 0.3521 | 11.06 ± 0.3 mN/m
262.8 K, w2 = 0.7274 | 12.12 ± 0.31 mN/m and 12.08 ± 0.31 mN/m
262.85 K, w2 = 0.3961 | 11.14 ± 0.3 mN/m
262.96 K, w2 = 0.5417 | 11.34 ± 0.31 mN/m
262.98 K, w2 = 0.3961 | 11.14 ± 0.3 mN/m and 11.18 ± 0.31 mN/m
264.66 K, w2 = 0.727 | 11.63 ± 0.31 mN/m and 11.62 ± 0.31 mN/m
264.68 K, w2 = 0.5412 | 11.11 ± 0.31 mN/m and 11.09 ± 0.31 mN/m
264.87 K, w2 = 0.3955 | 10.9 ± 0.31 mN/m and 10.92 ± 0.31 mN/m
264.88 K, w2 = 0.3514 | 10.71 ± 0.31 mN/m and 10.75 ± 0.31 mN/m
264.96 K, w2 = 0.297 | 10.65 ± 0.31 mN/m
266.51 K, w2 = 0.2966 | 10.42 ± 0.3 mN/m and 10.44 ± 0.3 mN/m
266.75 K, w2 = 0.5405 | 10.75 ± 0.3 mN/m and 10.74 ± 0.3 mN/m
266.88 K, w2 = 0.3507 | 10.44 ± 0.3 mN/m and 10.47 ± 0.3 mN/m
267.04 K, w2 = 0.3948 | 10.5 ± 0.31 mN/m and 10.52 ± 0.31 mN/m
268.37 K, w2 = 0.296 | 10.2 ± 0.3 mN/m and 10.23 ± 0.3 mN/m
268.37 K, w2 = 0.54 | 10.53 ± 0.31 mN/m and 10.52 ± 0.31 mN/m
268.63 K, w2 = 0.7261 | 11.05 ± 0.31 mN/m and 11 ± 0.31 mN/m
268.72 K, w2 = 0.3943 | 10.33 ± 0.3 mN/m
268.79 K, w2 = 0.35 | 10.2 ± 0.3 mN/m and 10.23 ± 0.3 mN/m
270.7 K, w2 = 0.3936 | 10.06 ± 0.31 mN/m and 10.03 ± 0.31 mN/m
270.78 K, w2 = 0.3493 | 9.92 ± 0.3 mN/m
270.78 K, w2 = 0.5392 | 10.1 ± 0.31 mN/m
270.81 K, w2 = 0.2952 | 9.83 ± 0.3 mN/m and 9.86 ± 0.3 mN/m
272.17 K, w2 = 0.7252 | 10.38 ± 0.3 mN/m
272.9 K, w2 = 0.2945 | 9.56 ± 0.3 mN/m and 9.6 ± 0.3 mN/m
272.91 K, w2 = 0.7249 | 10.28 ± 0.31 mN/m
273.15 K, w2 = 0.3928 | 9.64 ± 0.31 mN/m and 9.66 ± 0.31 mN/m
273.15 K, w2 = 0.5383 | 9.73 ± 0.3 mN/m
273.6 K, w2 = 0.3482 | 9.51 ± 0.31 mN/m
275.16 K, w2 = 0.2937 | 9.29 ± 0.3 mN/m and 9.31 ± 0.3 mN/m
275.3 K, w2 = 0.392 | 9.26 ± 0.3 mN/m and 9.29 ± 0.3 mN/m
275.48 K, w2 = 0.5375 | 9.44 ± 0.3 mN/m
275.5 K, w2 = 0.3474 | 9.19 ± 0.3 mN/m and 9.23 ± 0.3 mN/m
275.5 K, w2 = 0.7242 | 9.87 ± 0.3 mN/m and 9.89 ± 0.3 mN/m
276.85 K, w2 = 0.2931 | 9.01 ± 0.3 mN/m and 9.05 ± 0.3 mN/m
277.27 K, w2 = 0.3913 | 9.02 ± 0.3 mN/m and 9.06 ± 0.3 mN/m
277.3 K, w2 = 0.7237 | 9.66 ± 0.3 mN/m and 9.65 ± 0.3 mN/m
277.39 K, w2 = 0.3466 | 8.95 ± 0.3 mN/m and 8.98 ± 0.3 mN/m
277.43 K, w2 = 0.5367 | 9.29 ± 0.3 mN/m
279.39 K, w2 = 0.7231 | 9.32 ± 0.31 mN/m and 9.34 ± 0.31 mN/m
279.42 K, w2 = 0.2921 | 8.71 ± 0.3 mN/m
279.43 K, w2 = 0.5359 | 8.92 ± 0.31 mN/m
279.46 K, w2 = 0.3457 | 8.67 ± 0.3 mN/m
279.6 K, w2 = 0.3904 | 8.74 ± 0.3 mN/m and 8.76 ± 0.3 mN/m
281.21 K, w2 = 0.3898 | 8.45 ± 0.3 mN/m and 8.46 ± 0.3 mN/m
281.3 K, w2 = 0.5351 | 8.65 ± 0.3 mN/m and 8.64 ± 0.3 mN/m
281.45 K, w2 = 0.3448 | 8.4 ± 0.3 mN/m and 8.41 ± 0.3 mN/m
281.51 K, w2 = 0.2913 | 8.39 ± 0.3 mN/m
281.54 K, w2 = 0.7224 | 8.9 ± 0.31 mN/m and 8.93 ± 0.31 mN/m
283.11 K, w2 = 0.2907 | 8.2 ± 0.3 mN/m
283.17 K, w2 = 0.389 | 8.23 ± 0.3 mN/m
283.29 K, w2 = 0.7219 | 8.59 ± 0.3 mN/m and 8.61 ± 0.3 mN/m
283.3 K, w2 = 0.5342 | 8.39 ± 0.31 mN/m and 8.4 ± 0.31 mN/m
283.49 K, w2 = 0.3439 | 8.13 ± 0.3 mN/m
284.67 K, w2 = 0.5336 | 8.04 ± 0.3 mN/m and 8.07 ± 0.3 mN/m
285.18 K, w2 = 0.7212 | 8.37 ± 0.3 mN/m
285.19 K, w2 = 0.3882 | 7.93 ± 0.3 mN/m and 7.99 ± 0.3 mN/m
285.24 K, w2 = 0.2898 | 7.93 ± 0.3 mN/m and 7.9 ± 0.3 mN/m
285.46 K, w2 = 0.343 | 7.94 ± 0.3 mN/m and 7.95 ± 0.3 mN/m
286.62 K, w2 = 0.3876 | 7.79 ± 0.3 mN/m
286.86 K, w2 = 0.2891 | 7.75 ± 0.3 mN/m and 7.71 ± 0.3 mN/m
287.47 K, w2 = 0.342 | 7.57 ± 0.3 mN/m
287.63 K, w2 = 0.5322 | 7.69 ± 0.3 mN/m and 7.73 ± 0.3 mN/m
289.31 K, w2 = 0.5314 | 7.44 ± 0.3 mN/m and 7.45 ± 0.3 mN/m
289.33 K, w2 = 0.7197 | 7.78 ± 0.31 mN/m
289.37 K, w2 = 0.288 | 7.41 ± 0.31 mN/m
289.37 K, w2 = 0.3411 | 7.34 ± 0.3 mN/m and 7.38 ± 0.3 mN/m
289.42 K, w2 = 0.3863 | 7.45 ± 0.3 mN/m
289.68 K, w2 = 0.2879 | 7.29 ± 0.31 mN/m
289.89 K, w2 = 0.7195 | 7.55 ± 0.3 mN/m and 7.53 ± 0.3 mN/m
290.16 K, w2 = 0.386 | 7.2 ± 0.31 mN/m
291.25 K, w2 = 0.2872 | 7.12 ± 0.31 mN/m
291.47 K, w2 = 0.34 | 7.14 ± 0.3 mN/m
291.47 K, w2 = 0.5304 | 7.13 ± 0.31 mN/m and 7.18 ± 0.3 mN/m
291.5 K, w2 = 0.3854 | 7.05 ± 0.31 mN/m and 7.03 ± 0.3 mN/m
291.53 K, w2 = 0.2871 | 7.07 ± 0.31 mN/m and 7.05 ± 0.31 mN/m
291.66 K, w2 = 0.3853 | 7.07 ± 0.31 mN/m and 7.11 ± 0.3 mN/m
291.67 K, w2 = 0.5303 | 7.18 ± 0.31 mN/m and 7.16 ± 0.31 mN/m
291.93 K, w2 = 0.7187 | 7.33 ± 0.3 mN/m and 7.35 ± 0.3 mN/m
293.1 K, w2 = 0.2864 | 6.87 ± 0.3 mN/m
293.2 K, w2 = 0.3391 | 6.83 ± 0.3 mN/m and 6.87 ± 0.3 mN/m
293.46 K, w2 = 0.2862 | 6.81 ± 0.3 mN/m and 6.79 ± 0.31 mN/m
293.53 K, w2 = 0.5293 | 6.9 ± 0.3 mN/m
293.53 K, w2 = 0.7181 | 7.06 ± 0.3 mN/m and 7.09 ± 0.3 mN/m
293.8 K, w2 = 0.3843 | 6.67 ± 0.3 mN/m and 6.69 ± 0.3 mN/m
